From patent publication US20260007681A1, “INDOLE DERIVATIVES AS ESTROGEN RECEPTOR DEGRADERS” (REGENTS OF THE UNIVERSITY OF MICHIGAN, priority 2022, published 2026) come the findings set out here.

The target in the assay is ER (Homo sapiens (Human), UniProt P03372). The assay can be described thus: Western blot analysis (Compounds B1-B278). The class given is cell-based. To be noted: ER degradation by traditional Western blot; DC50 classes. The gist of the method: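 Compound-treated cells were lysed in RIPA buffer (Tris.HCl pH 7.6, 1% NP-40, deoxycholate, 0.1% SDS) with protease inhibitors; equal protein was resolved on 10% SDS-PAGE, transferred to PVDF and immunoblotted. Band intensities were quantified and normalized to GAPDH.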
A general note: Immunoblotting shows a protein as a band on a membrane.

Chain of ER (P03372 whole entry): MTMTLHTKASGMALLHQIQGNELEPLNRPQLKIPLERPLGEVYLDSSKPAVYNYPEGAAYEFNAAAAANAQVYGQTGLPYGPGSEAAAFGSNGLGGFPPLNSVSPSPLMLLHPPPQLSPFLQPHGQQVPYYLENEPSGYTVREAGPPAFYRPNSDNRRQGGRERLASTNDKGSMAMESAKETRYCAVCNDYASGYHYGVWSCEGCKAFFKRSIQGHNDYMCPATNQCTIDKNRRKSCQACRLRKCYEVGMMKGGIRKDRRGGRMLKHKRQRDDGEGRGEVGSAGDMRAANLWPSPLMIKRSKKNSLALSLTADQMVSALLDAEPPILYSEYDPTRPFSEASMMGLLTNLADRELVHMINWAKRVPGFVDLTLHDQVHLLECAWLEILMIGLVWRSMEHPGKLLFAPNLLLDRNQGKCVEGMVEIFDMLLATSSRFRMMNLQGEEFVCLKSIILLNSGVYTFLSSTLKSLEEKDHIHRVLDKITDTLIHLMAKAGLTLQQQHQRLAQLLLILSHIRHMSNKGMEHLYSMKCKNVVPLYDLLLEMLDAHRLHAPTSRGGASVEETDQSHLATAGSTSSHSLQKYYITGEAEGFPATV

As to `C[C@@H]1Cc2c([nH]c3ccccc23)[C@@H](c2c(F)cc(CN3CCC4(CCC(C(=O)N5Cc6cc7c(cc6C5)C(=O)N(C5CCC(=O)NC5=O)C7=O)CC4)CC3)cc2F)N1CC(F)F` (stereo partly drawn) [Compound B103, 6-(3-(4-((1R,3R)-2-(2,2-difluoroethyl)-3-methyl-2,3,4,9-tetrahydro-1H-pyrido[3,4-b]indol-1-yl)-3,5-difluorobenzyl)-3-azaspiro[5.5]undecane-9-carbonyl)-2-(2,6-dioxopiperidin-3-yl)-6,7-dihydropyrrolo[3,4-f]isoindole-1,3(2H,5H)-dione], the “Traditional Western Degradation Potency” value was “C (“C”: >100 nM)”.
To `C[C@@H]1Cc2c([nH]c3ccccc23)[C@H](c2c(F)cc(CN3CCC4(CCC(C(=O)N5Cc6cc7c(cc6C5)C(=O)N(C5CCC(=O)NC5=O)C7=O)CC4)CC3)cc2F)N1CC(F)F` (stereo partly drawn) [Compound B104, 6-(3-(4-((1S,3R)-2-(2,2-difluoroethyl)-3-methyl-2,3,4,9-tetrahydro-1H-pyrido[3,4-b]indol-1-yl)-3,5-difluorobenzyl)-3-azaspiro[5.5]undecane-9-carbonyl)-2-(2,6-dioxopiperidin-3-yl)-6,7-dihydropyrrolo[3,4-f]isoindole-1,3(2H,5H)-dione] belongs “C (“C”: >100 nM)”; to `C[C@@H]1Cc2c([nH]c3ccccc23)[C@@H](c2c(F)cc(C3CCN(C(=O)[C@H]4CC[C@@H](N5Cc6cc7c(cc6C5)C(=O)N(C5CCC(=O)NC5=O)C7=O)CC4)CC3)cc2F)N1CC(F)F` (stereo partly drawn) [Compound B105, 6-((1S,4s)-4-(4-(4-((1R,3R)-2-(2,2-difluoroethyl)-3-methyl-2,3,4,9-tetrahydro-1H-pyrido[3,4-b]indol-1-yl)-3,5-difluorophenyl)piperidine-1-carbonyl)cyclohexyl)-2-(2,6-dioxopiperidin-3-yl)-6,7-dihydropyrrolo[3,4-f]isoindole-1,3(2H,5H)-dione], “B (“B”: 10-100 nM)”; to `C[C@@H]1Cc2c([nH]c3ccccc23)[C@@H](c2c(F)cc(C3CCN(C(=O)[C@H]4CC[C@H](N5Cc6cc7c(cc6C5)C(=O)N(C5CCC(=O)NC5=O)C7=O)CC4)CC3)cc2F)N1CC(F)F` (stereo partly drawn) [Compound B106, 6-((1R,4r)-4-(4-(4-((1R,3R)-2-(2,2-difluoroethyl)-3-methyl-2,3,4,9-tetrahydro-1H-pyrido[3,4-b]indol-1-yl)-3,5-difluorophenyl)piperidine-1-carbonyl)cyclohexyl)-2-(2,6-dioxopiperidin-3-yl)-6,7-dihydropyrrolo[3,4-f]isoindole-1,3(2H,5H)-dione], “A (“A”: <10 nM)”.
To `COc1cc([C@H]2CC[C@@H](C(=O)N3CCC(N4Cc5cc6c(cc5C4)C(=O)N(C4CCC(=O)NC4=O)C6=O)CC3)CC2)ncc1[C@@H]1c2[nH]c3ccccc3c2C[C@@H](C)N1CC(F)F` (stereo partly drawn) [Compound B107, 6-(1-((1S,4s)-4-(5-((1R,3R)-2-(2,2-difluoroethyl)-3-methyl-2,3,4,9-tetrahydro-1H-pyrido[3,4-b]indol-1-yl)-4-methoxypyridin-2-yl)cyclohexane-1-carbonyl)piperidin-4-yl)-2-(2,6-dioxopiperidin-3-yl)-6,7-dihydropyrrolo[3,4-f]isoindole-1,3(2H,5H)-dione] belongs “C (“C”: >100 nM)”; to `COc1cc([C@H]2CC[C@H](C(=O)N3CCC(N4Cc5cc6c(cc5C4)C(=O)N(C4CCC(=O)NC4=O)C6=O)CC3)CC2)ncc1[C@@H]1c2[nH]c3ccccc3c2C[C@@H](C)N1CC(F)F` (stereo partly drawn) [Compound B108, 6-(1-((1R,4r)-4-(5-((1R,3R)-2-(2,2-difluoroethyl)-3-methyl-2,3,4,9-tetrahydro-1H-pyrido[3,4-b]indol-1-yl)-4-methoxypyridin-2-yl)cyclohexane-1-carbonyl)piperidin-4-yl)-2-(2,6-dioxopiperidin-3-yl)-6,7-dihydropyrrolo[3,4-f]isoindole-1,3(2H,5H)-dione], “C (“C”: >100 nM)”; to `C[C@@H]1Cc2c([nH]c3ccccc23)[C@@H](c2ncc(C3=CCC(C(=O)N4CCC(N5Cc6cc7c(cc6C5)C(=O)N(C5CCC(=O)NC5=O)C7=O)CC4)CC3)cc2F)N1CC(F)F` (stereo partly drawn) [Compound B109, 6-(1-(4-(6-((1S,3R)-2-(2,2-difluoroethyl)-3-methyl-2,3,4,9-tetrahydro-1H-pyrido[3,4-b]indol-1-yl)-5-fluoropyridin-3-yl)cyclohex-3-ene-1-carbonyl)piperidin-4-yl)-2-(2,6-dioxopiperidin-3-yl)-6,7-dihydropyrrolo[3,4-f]isoindole-1,3(2H,5H)-dione], “C (“C”: >100 nM)”.
With `C[C@@H]1Cc2c([nH]c3ccccc23)[C@@H](c2c(F)cc(C3CCC(C(=O)N4CCC(N5Cc6cc7c(cc6C5)C(=O)N(C5CCC(=O)NC5=O)C7=O)CC4)CC3)cc2F)N1CC(F)(F)CO` (stereo partly drawn) [Compound B110, 6-(1-(4-(4-((1R,3R)-2-(2,2-difluoro-3-hydroxypropyl)-3-methyl-2,3,4,9-tetrahydro-1H-pyrido[3,4-b]indol-1-yl)-3,5-difluorophenyl)cyclohexane-1-carbonyl)piperidin-4-yl)-2-(2,6-dioxopiperidin-3-yl)-6,7-dihydropyrrolo[3,4-f]isoindole-1,3(2H,5H)-dione] the entry was “C (“C”: >100 nM)”; with `COc1cc([C@H]2CC[C@H](C(=O)N3CCC(N4Cc5cc6c(cc5C4)C(=O)N(C4CCC(=O)NC4=O)C6=O)CC3)CC2)ccc1[C@@H]1c2[nH]c3ccccc3c2C[C@@H](C)N1CC(F)F` (stereo partly drawn) [Compound B111, 6-(1-((1R,4r)-4-(4-((1R,3R)-2-(2,2-difluoroethyl)-3-methyl-2,3,4,9-tetrahydro-1H-pyrido[3,4-b]indol-1-yl)-3-methoxyphenyl)cyclohexane-1-carbonyl)piperidin-4-yl)-2-(2,6-dioxopiperidin-3-yl)-6,7-dihydropyrrolo[3,4-f]isoindole-1,3(2H,5H)-dione], “B (“B”: 10-100 nM)”; with `COc1cc([C@H]2CC[C@@H](C(=O)N3CCC(N4Cc5cc6c(cc5C4)C(=O)N(C4CCC(=O)NC4=O)C6=O)CC3)CC2)ccc1[C@@H]1c2[nH]c3ccccc3c2C[C@@H](C)N1CC(F)F` (stereo partly drawn) [Compound B112, 6-(1-((1S,4s)-4-(4-((1R,3R)-2-(2,2-difluoroethyl)-3-methyl-2,3,4,9-tetrahydro-1H-pyrido[3,4-b]indol-1-yl)-3-methoxyphenyl)cyclohexane-1-carbonyl)piperidin-4-yl)-2-(2,6-dioxopiperidin-3-yl)-6,7-dihydropyrrolo[3,4-f]isoindole-1,3(2H,5H)-dione], “C (“C”: >100 nM)”.
In the case of `COc1nc(C2CCC(C(=O)N3CCC(N4Cc5cc6c(cc5C4)C(=O)N(C4CCC(=O)NC4=O)C6=O)CC3)CC2)ccc1[C@@H]1c2[nH]c3ccccc3c2C[C@@H](C)N1CC(F)F` (stereo partly drawn) [Compound B113, 6-(1-(4-(5-((1R,3R)-2-(2,2-difluoroethyl)-3-methyl-2,3,4,9-tetrahydro-1H-pyrido[3,4-b]indol-1-yl)-6-methoxypyridin-2-yl)cyclohexane-1-carbonyl)piperidin-4-yl)-2-(2,6-dioxopiperidin-3-yl)-6,7-dihydropyrrolo[3,4-f]isoindole-1,3(2H,5H)-dione], the “Traditional Western Degradation Potency” value is “C (“C”: >100 nM)”.
